In publication PMC2765639 (PLoS Neglected Tropical Diseases, 2009):
Read-outs that look alike come from different tables or passages of the source.

Assays:
A549 = experiment: Mammalian cell line specificity assay (alamar blue); format: cell-based, human
Method: (§1) Mammalian cells were cultured and maintained according to ATCC specifications (ATCC, Manassas, VA). Cell line drug susceptibility assays were performed in final volumes of 25 µL using our previously described 384-well microtiter plate format,[39]. […] Test and control compounds were added to individual wells as described above. Vehicle and positive controls were 1% DMSO and 10% DMSO, respectively (final well concentrations). Assay plates were incubated for 44–46 h at 37°C in the presence of 5% CO2 and growth inhibitory effects were determined as described above. Five µL of alamar blue reagent was added to each well and incubated for 2–4 h. Data were captured as described above.

L. major promastigotes [1] = experiment: L. major promastigote drug susceptibility assay (alamar blue, 384-well); format: cell-based, Leishmania major
Method: Promastigotes were grown in vented T75 tissue culture flasks and maintained at 28°C. Promastigote cultures were initiated at 10^5 parasites per mL and subcultured every 3–4 days. L. major promastigote counts were performed in duplicate using a hemocytometer and particle counter (Beckman Coulter, Fullerton, CA). For HTS assays, L. major promastigote cultures were harvested during exponential growth phase (∼2.0–3.0×10^7 parasites/mL) and were not maintained past passage 20.
The final test compound concentration was 10 µM with a constant DMSO concentration of 1% in each assay well.
The L. major promastigote drug susceptibility assay was performed in a final volume of 25 µL using our previously described 384-well microtiter plate format,[39]. For automated HTS procedures, L. major promastigotes (5,000 parasites/22 µL) in complete growth medium were seeded into each well of the microtiter plates using a MAPC2 bulk dispenser (Titertek, Huntsville, AL). Test and control compounds (3 µL) were added to individual wells using a Velocity 11 V-prep (Menlo Park, CA) liquid handling system, equipped with a 384-well dispensing head, followed by centrifugation at 50 g for 1 min. […] Assay plates were allowed to incubate for 44 h at 28°C in the presence of 5% CO2. Five µL of alamar blue reagent were added to each assay plate well and incubated for 4 h at 28°C with 5% CO2. Data were captured on a Molecular Devices SpectraMax M5 (excitation560; emission590). Individual assay plate Z-factors were derived from the vehicle and positive controls, and data from plates were used only if Z-factors were >0.5 [50].
The assays were performed in duplicate with a final 10-point concentration range spanning 0.01–5.00 µM.

[2] = test system: L. major axenic amastigote-like population; experiment: L. major axenic amastigote-like alamar blue assay (pH 4.9); format: cell-based, Leishmania major
L. major promastigotes [3] = experiment: Flow cytometer-based growth inhibition and cytotoxicity assay; settings: 48 h, read-out: L. major promastigote EC50 (AVE±SD) Confirmation Flow Cytometry
IMR-90 = experiment: Mammalian cell line specificity assay (alamar blue); format: cell-based, human; settings: 44–46 h, alamar blue, read-out: IMR90 EC50 (AVE±SD)
Method: as §1

PC-3 = experiment: as above; format: cell-based, human; settings: 44–46 h, alamar blue, read-out: PC-3 EC50 (AVE±SD)
Method: as §1

HeLa = experiment: as above; format: cell-based, human; settings: 44–46 h, alamar blue, read-out: HeLa EC50 (AVE±SD)
Method: as §1

MDA-MB-231 = experiment: as above; format: cell-based, human; settings: 44–46 h, alamar blue, read-out: MDA EC50 (AVE±SD)
Method: as §1

[4] = Table S1, PMLSC library samples, read-out: EC50 Ave ± SD, A549
[5] = Table S1; PMLSC library samples, 10-point 0.01–5.00 µM; read-out: EC50 Ave ± SD, Lm
[6] = Leishmania major, 144 h, pH 4.9, read-out: L. major axenic amastigote-like EC50 (AVE±SD) Confirmation Alamar Blue
[7] = Leishmania major, read-out: EC50 Ave ± SD, Lm

| Compound | EC50 (A549; [4]) [nM] | EC50 (L. major promastigotes [1]; [5]) [nM] | other results |
| --- | --- | --- | --- |
| CCC(/C=C1\Sc2ccc(OC)cc2N1CCO)=C\c1sc2ccc(OC)cc2[n+]1CCO [CID 12004742] | > 5000 | 491 ± 92 |  |
| Cc1ccc(-c2cc3cccc[n+]3cc2-c2ccc(C)cc2)cc1 [CID 13481921] | > 5000 | 229 ± 34 |  |
| Nc1nn(-c2ccccc2)c(N)c1N=Nc1ccc2c(c1)OCO2 [CID 15944965] | > 5000 | 849 ± 99 |  |
| O=C(c1ccccc1)c1c2c(cc3sc4ccccc4[n+]13)-c1cccc3cccc-2c13 [CID 15944971] | > 5000 | 505 ± 54 |  |
| CCOC(=O)c1c(-c2ccc(F)cc2)csc1NC(=O)CCN1CCOCC1 [CID 15945170] | > 5000 | 178 ± 36 |  |
| Cn1cc(CN2CCC(CO)CC2)c(-c2ccc(Oc3ccccc3)cc2)n1 [CID 16187569] | > 5000 | 165 ± 25 |  |
| CC(C)(C)c1ccc(C(=O)C2CCCN(C3CCC3)C2)cc1 (stereo not shown) [CID 16187595] |  |  | EC50 [2, 6]: 2300 ± 200 nM; EC50 (A549; Homo sapiens, A549, read-out: EC50 Ave ± SD, A549): > 5000 nM; EC50 (L. major promastigotes [1]; [7]): 14 ± 13 nM; EC50 (L. major promastigotes [3]; Leishmania major): 40 ± 10 nM |
| O=C(c1ccc(-c2ccccc2)c(F)c1)C1CCCN(CCO)C1 (stereo not shown) [CID 16187738] | > 5000 | 511 ± 44 |  |
| NCC12CC3CC(C1)CC(c1ccc(Cl)cc1)(C3)C2 [CID 16192591] | 3750 ± 623 | 357 ± 56 |  |
| C[n+]1c(-c2ccccc2)cc(CCCCc2cc(-c3ccccc3)[n+](C)c(-c3ccccc3)c2)cc1-c1ccccc1.[O-][Cl+3]([O-])([O-])O [CID 16196006] | > 5000 | 703 ± 44 |  |
| Cc1cc(/C=C2\Sc3ccccc3N2C)cc(C)[n+]1CC1CCCO1 (stereo not shown) [CID 16196319] | > 5000 | 15 ± 1 |  |
| CN(C)CCOc1ccccc1Cc1ccccc1 [Phenytoloxamine, reference compound] |  |  | EC50 [2, 6]: > 50000 nM; EC50 (IMR-90; Homo sapiens, IMR-90): > 50000 nM; EC50 (PC-3; Homo sapiens, PC-3): > 50000 nM; EC50 (HeLa; Homo sapiens, HeLa): > 50000 nM; EC50 (A549; Homo sapiens, A549, 44–46 h, alamar blue, read-out: A549 EC50 (AVE±SD)): > 50000 nM; EC50 (A549; Homo sapiens, A549, Table S1, PMLSC library samples, read-out: EC50 Ave ± SD, A549): > 5000 nM; EC50 (MDA-MB-231; Homo sapiens, MDA-MB-231): > 50000 nM; EC50 (L. major promastigotes [1]; [7]): 502 ± 87 nM; EC50 (L. major promastigotes [3]; Leishmania major): 300 ± 30 nM |
| Pentamidine Isethionate [reference compound] |  |  | EC50 ([2]; read-out: L. major axenic amastigote-like EC50 (AVE±SD) Confirmation Alamar Blue, pH 4.9, 144 h, 32°C): 1260 ± 40 nM; EC50 (IMR-90): > 50000 nM; EC50 (PC-3): > 50000 nM; EC50 (HeLa): > 50000 nM; EC50 (A549; read-out: A549 EC50 (AVE±SD), 44–46 h, alamar blue): > 50000 nM; EC50 (A549; read-out: EC50 Ave ± SD, A549, Table S1, PMLSC library samples): > 5000 nM; EC50 (MDA-MB-231): > 50000 nM; EC50 (L. major promastigotes [1]; read-out: EC50 Ave ± SD, Lm; Table S1; PMLSC library samples, 10-point 0.01–5.00 µM): 46 ± 12 nM; primary hit (≥50% inhibition of signal readout) (L. major promastigotes [1]; single concentration 10 µM; LOPAC, UP-CMLD DP validation set or PMLSC library): primary hits; EC50 (L. major promastigotes [3]; 28°C, ViaCount, 0.1–50 µM): 730 ± 390 nM |

More lines, main results first:

| EC50 (A549; [4]) [nM] | EC50 (L. major promastigotes [1]; [5]) [nM] | Compound | other results |
| --- | --- | --- | --- |
| 4070 ± 721 | 629 ± 107 | CCCCCCCCCCCCCCCC[n+]1cccc(C(=O)N(CC)CC)c1 [CID 12005597] |  |
| > 5000 | 184 ± 12 | Cc1ccc(-c2cc(-c3ccc(C)cc3)[n+](C)o2)cc1.[O-][Cl+3]([O-])([O-])[O-] [CID 15945780] |  |
| > 5000 | 571 ± 113 | CC12CCC(C(=O)N(CCCN3CCN(Cc4ccccc4)CC3)C1=O)C2(C)C (stereo not shown) [CID 16189740] |  |
| > 5000 | 301 ± 50 | CC(C)(C)c1ccc(-c2ncccc2O)cc1 [CID 16192568] |  |
| > 5000 | 50 ± 9 | COc1ccc(/C=C/c2cc[n+](C(=O)Cc3ccccc3)cc2)cc1 [CID 16196001] |  |
| 2320 ± 205 | 18 ± 2 | COc1ccc(-[n+]2c(C)cc(/C=C3\Sc4ccccc4N3C)cc2C)cc1 [CID 16196223] |  |
